Measurements as given in PMC5625163, “Incompatibility of chemical protein synthesis inhibitors with accurate measurement of extended protein degradation rates” (Pharmacology Research & Perspectives, 2017).
Where a name gives a salt, the structure may show the parent alone. Read-outs that look alike come from different tables or passages of the source. Starred links: 1 amine or outer side, 2 acyl side, 3 side chain; linkers in the order of their positions; H or OH if unused. Positions of bridges follow the written chain, without caps; N, C: chain ends. Non-standard residues stand in square brackets, D forms with d. Residues, ends and D or L forms follow the SMILES beside them. Chains are numbered I, II in the order given. Actinocin(9to1) = Cc1c2oc3c(C)ccc(C(=O)[*:1])c3nc-2c(C(=O)[*:2])c(N)c1=O; NMeV = CN[C@H](C(=O)O)C(C)C; Sar = CNCC(=O)O

Experiments:
HeLa cells [1] = tested on: HeLa cells; parameters: method as in Dudani et al. (1988); conditions: at 0.9 mmol/L in HeLa cells; ref Dudani et al. (1988); cited from earlier work
[2] = Standard MTT cell viability assay in primary rat hepatocytes; format: cell-based; conditions: male, Sprague-Dawley
Procedure: Primary rat hepatocytes (PRH) were purchased from Invitrogen (Paisley, UK), isolated from male Sprague–Dawley rats at 9 weeks old (Lot. RS745). Cryopreserved PRH were thawed in a 37°C water bath for approximately 2 min until contents were around 90% thawed. Once thawed, the hepatocytes were added to 50 mL of prewarmed plating media (William's E media without phenol red supplemented with 5% FBS, 1 μmol/L dexamethasone, 1% solution of penicillin/streptomycin, 4 μg/mL bovine insulin, 2 mmol/L GlutaMAX™, and 15 mmol/L HEPES (CHRM® supplement A), and centrifuged for 3 min at 55g at 18°C and the supernatant fraction discarded. The hepatocytes were then resuspended in plating media at 1 × 10^6 cells per ml density.
(§1) Standard MTT assays were performed on HepG2 and PRH cells to measure cell viability. 2 × 10^4 cells per well of HepG2 were seeded into 96‐well plates in DMEM with 10% FBS and left overnight in a 37°C humidified incubator to allow cells to adhere to the plate. PRH were seeded in collagen coated 96‐well plates at a density of 2 × 10^4 cells per well. Old media was removed and replaced with 0–300 μmol/L of protein synthesis inhibitors and incubated for 72 h. A vehicle control and control with no drug was included. A quantity of 20 μL of 5 mg/mL […] in HBSS was added to each well and incubated for 2 h. A quantity of 100 μL lysis buffer (50% v/v dimethylformahyde and 20% v/v sodium dodecyl sulphate) was added to each well and the plate was incubated overnight at 37°C. The absorbance was quantified at 570 nm by a Tecan GENios micoplate reader (Germany).
(§2) Cycloheximide was incubated at 0–300 μmol/L and emetine at 0–30 μmol/L for both leucine incorporation and MTT assays.
(§3) The IC50 (concentration causing 50% protein synthesis inhibition), CC50 (concentration causing 50% cell viability), and CC10 (concentration causing 90% cell viability) were calculated by nonlinear regression of drug concentration versus leucine incorporation and MTT concentration–response graphs, respectively, using Graphpad Prism 3 software. The IC50 and CC50 values derived from the single inhibitor analyses were used for subsequent fixed‐ratio isobologram two‐drug combination analyses.

[3] = tested on: primary rat hepatocytes (PRH); assay: [3H]-leucine incorporation protein synthesis inhibition assay in primary rat hepatocytes; format: cell-based; conditions: Hepatocyte, 72 h, read-out: IC50 protein synthesis inhibition
HeLa cells [4] = conditions: cited from earlier work
HepG2 cells [5] = assay: [3H]-leucine incorporation protein synthesis inhibition assay in HepG2 cells; format: cell-based; conditions: Homo sapiens, read-out: IC50 protein synthesis inhibition
[6] = Standard MTT cell viability assay in HepG2 cells; format: cell-based, human; conditions: human
Procedure: as §1, §2, §3

HepG2 cells [7] = assay: Standard MTT cell viability assay in HepG2 cells; format: cell-based, human; conditions: 72 h
Procedure: as §1, §2, §3

Huh‐7 cells = conditions: at 10 μmol/L in Huh‐7 cells; ref Yin Low et al. (2009); cited from earlier work
[8] = PRH, 72 h, single inhibitor, MTT, mean ± SD, read-out: CC50 cytotoxicity (50% cell viability)
[9] = HepG2 cells, 72 h, single inhibitor, MTT, mean ± SD, read-out: CC50 cytotoxicity (50% cell viability)
[10] = HepG2 cells, single inhibitor, MTT

Row | IC50 (HepG2 cells [5]; HepG2 cells, 72 h, single inhibitor, mean ± SD) | Compound | protein synthesis inhibition (HeLa cells [1]) | CC50 at 72 h [2] | IC50 ([3]; PRH, single inhibitor, mean ± SD) | concentration causing cytotoxicity (HeLa cells [4]; human cell lines, including HeLa cells, ref Dudani et al. (1988)) | CC50 at 72 h [6] | CC10 (90% cell viability concentration) (HepG2 cells [7]; human) | CC50 at 72 h [2, 8] | IC50 [3] | concentration sufficient to cause cell toxicity (HeLa cells [4]; HeLa cells, ref Sawicki and Godman (1971)) | IC50 (HepG2 cells [5]; HepG2, 72 h) | CC50 at 72 h [6, 9] | CC10 (90% cell viability concentration) (HepG2 cells [7]; [10]) | cell viability (Huh‐7 cells)
1 | 1600 ± 1200 nM | COc1ccc(C[C@H](N)C(=O)N[C@H]2[C@@H](O)[C@H](n3cnc4c(N(C)C)ncnc43)O[C@@H]2CO)cc1 [puromycin, puromycin dihydrochloride] | 79.6% | 1600 ± 1000 nM | 2000 ± 2000 nM | 900 nM | 1300 ± 64 nM | 110 nM | – | – | – | – | – | – | –
2 | – | Cc1c2oc3c(C)ccc(C(=O)N[C@@H]4C(=O)N[C@H](C(C)C)C(=O)N5CCC[C@H]5C(=O)N(C)CC(=O)N(C)[C@@H](C(C)C)C(=O)O[C@@H]4C)c3nc-2c(C(=O)N[C@@H]2C(=O)N[C@H](C(C)C)C(=O)N3CCC[C@H]3C(=O)N(C)CC(=O)N(C)[C@@H](C(C)C)C(=O)O[C@@H]2C)c(N)c1=O [actinomycin D] (I: T[dV]P[Sar][NMeV] / II: T[dV]P[Sar][NMeV]; ester I:1-I:C, II:1-II:C; linker I:N-II:N via Actinocin(9to1)) | – | – | – | – | – | – | 0.98 ± 1.8 nM | 1.7 ± 1.8 nM | 80 nM | 39 ± 7.4 nM | 6.2 ± 7.3 nM | 0.17 nM | –
3 | – | C[C@@H]1C[C@@H]([C@H](O)CC2CC(=O)NC(=O)C2)C(=O)[C@@H](C)C1 [cycloheximide] | – | – | – | – | – | – | 680 ± 1300 nM | 290 ± 90 nM | – | 6600 ± 2500 nM | 570 ± 510 nM | 24 nM | –
4 | – | CC[C@H]1CN2CCc3cc(OC)c(OC)cc3[C@@H]2C[C@@H]1C[C@H]1NCCc2cc(OC)c(OC)cc21 [emetine, emetine dihydrochloride hydrate] | – | – | – | – | – | – | 180 nM | 620 ± 920 nM | – | 2200 ± 1400 nM | 81 ± 9 nM | 7.0 nM | over 90%
